Experimental data reported in patent publication US20250073177A1, “LIPID NANOPARTICLES FOR OLIGONUCLEOTIDE DELIVERY” (ZIPHIUS NV, priority 2021, published 2025).

How the values were obtained:
[1] = LNP particle size, polydispersity index and charge by Zeta Sizer; assay type: physicochemical; conditions: LNP lipid:DOPE:Cholesterol:DMG-PEG 35:20:43.5:1.5, N/P about 40/1, firefly luciferase saRNA
Description: Cationic lipids, DOPE, Cholesterol and DMG-PEG lipid were solubilized in ethanol or DMSO at a molar ratio of 35:20:43.5:1.5 and a concentration of 100:25:20:25 μg/μL for C12-200 or 170:25:20:25 μg/μL for the comparator lipids. Lipid nanoparticles (LNP) were prepared by targeting an N/P ratio of approximately 40/1 with saRNA. Briefly, the firefly luciferase saRNA of approximately 9659 nucleotides was diluted to 0.5 mg/mL in 5 mM citrate buffer, pH 4.5. Microfluidic mixer (Ignite from Precision Nanosystems, California, USA) was used to mix the lipid solution with the saRNA aqueous solution at a ratio of about 1:3 (vol/vol) with total flow rates above 10 ml/min. The ethanol was then removed, and the external buffer replaced with 10 mM TRIS-HCL, PH 7.4, by dialysis. Finally, the lipid nanoparticles were filtered through a 0.2 μm pore sterile filter. Lipid nanoparticle particle size was 50-150 nm diameter and polydispersity index (PI) of 0.1-0.4 as determined by Zeta Sizer (Malvern Panalytical, UK). The charge of the formulation was also measured by Zeta Sizer and ranged between 20 to −20 mV.

[2] = saRNA encapsulation in LNP, Quant-IT RiboGreen assay; assay type: physicochemical; conditions: LNP with firefly luciferase saRNA, RiboGreen with or without Triton X-100
Description: The saRNA loading in LNP formulations was quantified using a Quant-IT RiboGreen assay (Thermo Fisher Scientific, Waltham, Massachusetts, USA) as previously described. 14 samples were diluted tenfold in 1×Tris HCL-EDTA (TE) buffer (10 mM Tris-HCL, 1 mM EDTA, pH 7.5) with or without 2% (v/v) Triton X-100 (Sigma-Aldrich, Saint Louis, Missouri, USA). Standard solutions were also prepared in 1×TE with or without 2% (v/v) Triton X-100 to account for any variation in fluorescence. The assay was performed according to the manufacturer's protocol. Samples were loaded on a black 96-well plate and analysed for fluorescence on a microplate reader (Tecan Infinite® 200 PRO) at an excitation of 485 nm and emission at 528 nm. Encapsulation efficiency was calculated between 80-100%. See Table 3 below for the results obtained.

[3] = Body weight of mice after injection of LNP-formulated luciferase saRNA; assay type: in vivo; conditions: 1 μg luciferase saRNA in LNP
Description: (§1) Female SWISS mice (6 weeks old) were purchased from Janvier Laboratories (Paris, France) and kept in individually ventilated cages with access to food and water ad libitum. Mice were anesthetized with isoflurane (Zoetis, Louvain-La-Neuve, Belgium) (5% for induction and 2% for maintenance) and intramuscularly injected with a total of 1 μg in 100 μL Tris-HCL (50 μL per leg) LNP-formulated luciferase saRNA (for each group n=7). The expression of the luciferase induced bioluminescence was measured via non-invasive In vivo bioluminescent imaging (In vivo Imaging System (IVIS) Lumina III, Perkin Elmer, Waltham, Massachusetts, USA), 10 minutes after subcutaneous injection of 200 μL of D-luciferin (GoldBio, Saint Louis, Missouri, USA, #LUCK-1G) were measured in day 0 (before injection), day 1, day 3, day 5, day 7, day 10, day 15 and day 20.
See Tables 4 and FIG. 1 for the results showing higher expression of the saRNA compared to prior art compounds at day 15 onwards when administered in LNPs comprising compounds of the invention. Table 5 supports good tolerability of the compounds of the invention.

Female SWISS mice = test: In vivo bioluminescent imaging of LNP-formulated luciferase saRNA expression; conditions: 1 μg luciferase saRNA in LNP
Description: as §1

[4] = Day 0 (before injection), intramuscular

| Structure (SMILES) | Polydispersity Index (PI) [1] | Z-average [1] [nm] | Zetapotential [1] [mV] | Encapsulation [2] [%] | Weight [3, 4] [g] | Weight ([3]; Day 1, intramuscular) [g] | Weight ([3]; Day 3, intramuscular) [g] | Weight ([3]; Day 5, intramuscular) [g] | Weight ([3]; Day 7, intramuscular) [g] | Weight ([3]; Day 10, intramuscular) [g] | Weight ([3]; Day 15, intramuscular) [g] | Weight ([3]; Day 20, intramuscular) [g] | Bioluminescence expression of LNPs (Female SWISS mice; [4]) | Bioluminescence expression of LNPs (Female SWISS mice; Day 1, intramuscular) | Bioluminescence expression of LNPs (Female SWISS mice; Day 3, intramuscular) | Bioluminescence expression of LNPs (Female SWISS mice; Day 5, intramuscular) | Bioluminescence expression of LNPs (Female SWISS mice; Day 7, intramuscular) | Bioluminescence expression of LNPs (Female SWISS mice; Day 10, intramuscular) | Bioluminescence expression of LNPs (Female SWISS mice; Day 15, intramuscular) | Bioluminescence expression of LNPs (Female SWISS mice; Day 20, intramuscular) |
| --- | --- | --- | --- | --- | --- | --- | --- | --- | --- | --- | --- | --- | --- | --- | --- | --- | --- | --- | --- | --- |
| CCCCCCCCCCCCCCOC(=O)CCN(CCC(=O)OCCCCCCCCCCCCCC)CCN1CCN(CCN(CCC(=O)OCCCCCCCCCCCCCC)CCC(=O)OCCCCCCCCCCCCCC)CC1 [Comparator 1, reference compound] | 0.16 | 70.96 | 9.07 | 99.03 | 26.56 | 25.99 | 27.21 | 27.59 | 27.09 | 27.17 | 29.43 | 30.11 |  |  |  |  |  |  |  |  |
| CCCCCCC(CCCC)C(=O)NCCN1CCN(CCN(CCCCOC(=O)C(CCCC)CCCCCC)CCCCOC(=O)C(CCCC)CCCCCC)CC1 (stereo not shown) [Compound 8-27, ((2-(4-(2-(2-butyloctanamido)ethyl)piperazin-1-yl)ethyl)azanediyl)bis(butane-4,1-diyl) bis(2-butyloctanoate)] | 0.16 | 85.72 | −12.65 | 98.64 | 27.07 | 26.01 | 27.57 | 28.86 | 28.40 | 28.67 | 29.44 | 30.57 | 8.55E+04 | 1.40E+08 | 9.90E+08 | 7.71E+08 | 2.35E+08 | 6.86E+06 | 7.44E+05 | 8.29E+05 |
| CCCCCCC(CCCC)C(=O)OCCCCN(CCCCOC(=O)C(CCCC)CCCCCC)CCN1CCN(CCOC(=O)C(CCCC)CCCCCC)CC1 (stereo not shown) [Compound 8-41, ((2-(4-(2-((2-butyloctanoyl)oxy)ethyl)piperazin-1-yl)ethyl)azanediyl)bis(butane-4,1-diyl) bis(2-butyloctanoate)] | 0.23 | 81.44 | −20.01 | 99.04 | 28.03 | 27.31 | 28.49 | 29.04 | 28.69 | 29.24 | 30.24 | 31.19 | 5.33E+04 | 5.42E+07 | 7.43E+08 | 6.54E+08 | 4.67E+08 | 9.17E+06 | 1.88E+06 | 1.88E+06 |
| CCCCCCCCCCC(O)CN(CCN1CCN(CCN(CC(O)CCCCCCCCCC)CC(O)CCCCCCCCCC)CC1)CCN(CC(O)CCCCCCCCCC)CC(O)CCCCCCCCCC (stereo not shown) [Compound C12-200, 1,1′-((2-(4-(2-((2-(bis (2-hydroxydodecyl)amino)ethyl) (2-hydroxydodecyl)amino)ethyl)piperazin-1-yl)ethyl)azanediyl)bis (dodecan-2-ol), reference compound] | 0.10 | 81.42 | 2.78 | 100.49 | 28.61 | 27.17 | 28.62 | 28.98 | 28.97 | 29.23 | 30.16 | 31.23 |  |  |  |  |  |  |  |  |
